Data: publication PMC8074792, “An ω-3, but Not an ω-6 Polyunsaturated Fatty Acid Decreases Membrane Dipole Potential and Stimulates Endo-Lysosomal Escape of Penetratin” (Frontiers in Cell and Developmental Biology, 2021)

Columns and labels:
JY cells [1] = conditions: 50 μM fatty acid 48 h, LysoTracker Deep Red and 10 µM PY3174 2 h at 37°C, extent similar to cell membrane
Protocol: (§1) Measurement of hydration of lysosomal membranes with fluorescence microscopy […]
(§2) The PY3174 fluorophore capable of providing information about the hydration of the cell membrane […]
(§3) via an emission ratiometric fluorescence microscopy assay was a kind gift from Leslie M. Loew […]
(§4) (University of Connecticut, CT) (1). For these measurements, cells were placed onto an 8-well […]
(§5) chambered coverglass and labeled with 100 nM LysoTracker Deep Red (Thermo Fisher Scientific, […]
(§6) Waltham, MA) for visualization of lysosomes and 10 µM PY3174 for 2 hours at 37°C to stimulate the […]
(§7) endocytosis of the environment-sensitive fluorophore. After staining, images were taken at the […]
(§8) midplane of cells using an LSM880 confocal laser-scanning microscope (Carl Zeiss AG, Jena, […]
(§9) Germany). PY3174 was excited at 488 nm and emitted intensities were measured in two wavelength […]
(§10) ranges between 500 and 540 nm (Iblue) and 650 and 735 nm (Ired), while LysoTracker Deep Red was […]
(§11) excited at 633 nm and emission was detected between 650 and 735 nm. During processing, pixels […]
(§12) corresponding to lysosomal membranes were identified based on the intensity of LysoTracker Deep […]
(§13) Red using a custom-written algorithm under MATLAB. The average value of generalized polarization […]
(§14) (GP) correlating with the degree of membrane hydration (1) was calculated from the data of lysosomal […]
(§15) membrane pixels after background subtraction using […]
(§16) (1 picture or pasted object on this page, not shown here)

THP-1 cells [2] = conditions: 50 μM fatty acid 48 h, LysoTracker Deep Red and 10 µM PY3174 2 h at 37°C, extent similar to cell membrane
Protocol: as §1, §2, §3, §4, §5, §6, §7, §8, §9, §10, §11, §12, §13, §14, §15, §16

JY cells [3] = assay: Membrane fluidity, TMA-DPH fluorescence anisotropy; assay type: cell-based, human; conditions: 200 μM sterol 1 h or 50 μM fatty acid 48 h, 37°C, n = 6, vs control
Protocol: (§17) 4′-(trimethylammonio)-diphenylhexatriene (TMA-DPH) was purchased from Sigma-Aldrich, dissolved in tetrahydrofuran and used for determination of membrane fluidity as described previously ([Batta et al., 2018]). […] Fluorescence intensities were measured without washing using a Fluorolog-3 spectrofluorometer (Horiba Jobin Yvon, Edison, NJ, United States) with the temperature of the cuvette holder adjusted to 37°C by a circulating water bath. The fluorescence anisotropy (r) of TMA-DPH was determined in the L-format after excitation at 352 nm and measurement of fluorescence intensities at 430 nm according to the formula: […]

THP-1 cells [4] = assay: Membrane fluidity, TMA-DPH fluorescence anisotropy; assay type: cell-based, human; conditions: 200 μM sterol 1 h or 50 μM fatty acid 48 h, 37°C, n = 6, vs control
Protocol: as §17

Compound | generalized polarization of PY3174 in the lysosomal membranes (JY cells [1]) | generalized polarization of PY3174 in the lysosomal membranes (THP-1 cells [2]) | TMA-DPH fluorescence anisotropy (inversely correlates with membrane fluidity) (JY cells [3]) | TMA-DPH fluorescence anisotropy (inversely correlates with membrane fluidity) (THP-1 cells [4])
CCCCC/C=C\C/C=C\C/C=C\CCCCC(=O)O [GLA, γ-linolenic acid] | decreased | decreased | did not reach statistical significance | did not reach statistical significance
CC/C=C\C/C=C\C/C=C\CCCCCCCC(=O)O [ALA, α-linolenic acid] | decreased | decreased | significantly decreased | significantly decreased
